{
  "source": "patent US10792305B2",
  "about": "“Therapeutic immune modulation using noble gas compositions” (NOBILIS THERAPEUTICS, INC., priority 2015, dated 2020)",
  "key": {"PTSD": {"tested_on": "PTSD", "conditions": "20 mg/day and 40 mg/day, cited from earlier work"}, "[1]": {"tested_on": "severely disruptive symptoms related to autistic disorder", "conditions": "pentoxifylline titrated to 600 mg/day with risperidone up to 3 mg/day, 10 weeks, versus placebo+risperidone; cited from earlier work"}, "[2]": {"tested_on": "behavioral symptoms of children with ASD", "conditions": "30 or 60 mg per day p.o. for 3-4 months, 25 children; cited from earlier work"}, "[3]": {"tested_on": "TNF-alpha production from monocytes", "experiment": "Induced TNF-alpha production by monocytes (adherent PBMC), ELISA", "format": "cell-based, human", "conditions": "30% xenon by volume for 1 or 2 hours; 1 ug/ml LPS and 10 μM amyloid beta peptide Aβ (1-42) for 24 h; supernatant ELISA", "experimental": "10 ml of heparinized blood was extracted from healthy volunteers and peripheral blood mononuclear cells were isolated by centrifugation over a ficoll gradient. Cells were subsequently washed in 2× volume phosphate buffered saline, and resuspended in RPMI media supplemented with 10% fetal calf serum. Cells were incubated at a concentration of 10 million cells per ml in 6-well plates in a volume of 2 ml per well. Cells were cultured for 24 hours at 37 Celsius in a fully humidified atmosphere with 5% CO2, subsequent to which non-adherent cells were removed by washing with PBS. Adherent cells were subsequently divided into […], one plate incubated at normoxic tissue culture, the second plate cultured for 1 hour in 30% xenon by volume, and the third tissue cultured for 2 hours in 30% volume. Cells were treated with control media, 1 ug/ml LPS and 10 μM of amyloid beta peptide Aβ (1-42) for 24 h. Supernatant was collected and assessed for TNF-alpha production by ELISA."}, "[4]": {"tested_on": "IL-12 production from dendritic cells", "experiment": "Induced IL-12 production by dendritic cells, ELISA", "format": "cell-based, human", "conditions": "CD1c dendritic cells; 1 ug/ml LPS and 10 μM amyloid beta peptide Aβ (1-42) for 24 h; supernatant ELISA", "experimental": "Monocytes from adherent PBMC were isolated as described in Example 1. Dendritic cells were generated by 7 day culture in IL-4 (10 ng/ml) and GM-CSF (20 ng/ml). Media was changed every two days. On day 7, purification of CD1c dendritic cells was performed and cells were cultured in control media, 1 ug/ml LPS and 10 μM of amyloid beta peptide Aβ (1-42) for 24 h. Supernatant was collected and assessed for IL-12 production by ELISA."}},
  "note": "“Also recorded” adds a separate entry of the source.",
  "data": [
    {"smiles": "Fc1ccc([C@@H]2CCNC[C@H]2COc2ccc3c(c2)OCO3)cc1", "note": "[paroxetine]", "values": [
      {"measurement": "improvement on primary outcome measures compared to placebo", "setting": "PTSD; intent-to-treat analysis", "value": "significantly greater improvement"},
      {"measurement": "PTSD symptom clusters (reexperiencing, avoidance/numbing, hyperarousal), social and occupational impairment, comorbid depression", "setting": "PTSD; versus placebo", "value": "statistically significant improvement compared to placebo"},
      {"measurement": "tolerability", "setting": "PTSD", "value": "well tolerated"}
    ]},
    {"smiles": "CC(=O)CCCCn1c(=O)c2c(ncn2C)n(C)c1=O", "note": "[pentoxifylline]", "values": [
      {"measurement": "ABC-C subscale scores (Irritability, Lethargy/Social Withdrawal, Stereotypic Behavior, Hyperactivity/Noncompliance, Inappropriate Speech)", "setting": "[1]", "value": "greater reduction in ABC-C subscale scores"}
    ]},
    {"smiles": "CCc1ccc(CCOc2ccc(CC3SC(=O)NC3=O)cc2)nc1", "note": "(stereo not shown) [pioglitazone]", "values": [
      {"measurement": "adverse events", "setting": "[2]", "value": "without adverse events"}
    ]},
    {"smiles": "[Xe]", "note": "[xenon gas, xenon]", "values": [
      {"measurement": "induced TNF-alpha production (FIG. 1)", "setting": "[3]", "value": "suppression of induced TNF-alpha production was observed; also recorded: suppression of inducible TNF-alpha production"},
      {"measurement": "induced IL-12 production (FIG. 2)", "setting": "[4]", "value": "suppression of induced IL-12 production was observed; also recorded: suppression of inducible IL-12 production"}
    ]}
  ]
}
